Where no end group is shown, it is not given here.
What was measured:
B82L fibroblasts = format: cell-based, mouse; conditions: 6 h
Description: FIGS. 6A-6H—Inhibition of B82L fibroblast and HMEC-1 cell attachment and spreading on VN by synstatin82-130. B82L fibroblasts, which rely on the αvβ5 integrin for attachment to VN, and human dermal microvascular endothelial cells, which rely on both the αvβ3 and αvβ5 integrins for attachment to VN, were plated in the absence of peptide (FIGS. 6A, 6E) or in the presence of 0.1 (FIGS. 6B, 6F), 0.3 (FIGS. 6C, 6G) or 1 μM (FIGS. 6D, 6H) synstatin82-130 for 2 hr and processed as described in FIG. 2.
Cell adhesion and spreading assays were performed with modification to the previous procedures (Lebakken and Rapraeger, 1996. Briefly, human plasma vitronectin or fibronectin at 10-30 μg/ml were applied to nitrocellulose-coated ten well slides (Erie Scientific) and incubated for 1-2 h at 37° C. Slides were blocked with 1.0% heat-denatured bovine serum albumin for a minimum of 30 min at 37° C. Cells were detached from the substratum using 5 mM EDTA in Tris-buffered saline and resuspended in HEPES-buffered culture medium containing 0.1% heat-denatured BSA. Cells were plated at a density of 15,000 cells per well and allowed to attach and spread for 2 h prior to fixation in 4% paraformaldehyde in CMF-PBS. For fluorescence microscopy, fixed cells were permeabilized in 0.2% Triton X-100, labeled with rhodamine-conjugated phalloidin and analyzed using fluorescence microscopy. […]

[1] = molecular target: T1, syndecan-1 association with the αvβ3 integrin (Homo sapiens, UniProt P05106+P06756); test: Co-immunoprecipitation of αvβ3 integrin with syndecan-1 from MDA-MB-231 cells; format: binding
T1 construct: endogenous in cells; host or cells: MDA-MB-231 human mammary carcinoma cells (some also transfected with mouse syndecan-1 constructs)
Excerpt: FIGS. 8A-8D—SSTN disrupts association of syndecan-1 with the αvβ3 and αvβ5 integrins. (FIG. 8A) Diagram of mouse syndecan-4 (mS4), human syndecan-1 (hS1) and mouse syndecan-1 (mS1) and mS1 deletion mutants showing which proteoglycans are able to activate the αvβ3 and αvβ5 integrins. (FIG. 8B) Flow cytometry of human aortic endothelial cells (HAEC), human dermal microvascular endothelial cells (HMEC-1) or mouse aortic endothelial cells (MAEC) using human or mouse-specific antibodies for syndecan-1, αvβ3, and αvβ5. The β5 subunit is detected by Western blot in mouse cells and is compared to B82L fibroblasts known to express this integrin; (FIG. 8C) Human syndecan-1 is immunoprecipitated from HMEC-1 cells in the presence or absence of 30 μM GST, 30 μM GST-mS1ED (mouse syndecan-1 ectodomain), or 1 μM SSTN and detected on blots along with co-precipitating β3 or β5 integrin. (FIG. 8D) Human syndecan-1 is immunoprecipitated from MDA-MB-231 human mammary carcinoma cells expressing full-length mouse syndecan-1 (F1-mS1), a mouse mutant bearing deletion of amino acids 67-121 (mS1^Δ67-121), or vector alone (NEO) and blotted for the co-precipitation of the αvβ3 integrin by detection of the β3 subunit. […]

T1 sequence (P06756 31-889 limits assumed): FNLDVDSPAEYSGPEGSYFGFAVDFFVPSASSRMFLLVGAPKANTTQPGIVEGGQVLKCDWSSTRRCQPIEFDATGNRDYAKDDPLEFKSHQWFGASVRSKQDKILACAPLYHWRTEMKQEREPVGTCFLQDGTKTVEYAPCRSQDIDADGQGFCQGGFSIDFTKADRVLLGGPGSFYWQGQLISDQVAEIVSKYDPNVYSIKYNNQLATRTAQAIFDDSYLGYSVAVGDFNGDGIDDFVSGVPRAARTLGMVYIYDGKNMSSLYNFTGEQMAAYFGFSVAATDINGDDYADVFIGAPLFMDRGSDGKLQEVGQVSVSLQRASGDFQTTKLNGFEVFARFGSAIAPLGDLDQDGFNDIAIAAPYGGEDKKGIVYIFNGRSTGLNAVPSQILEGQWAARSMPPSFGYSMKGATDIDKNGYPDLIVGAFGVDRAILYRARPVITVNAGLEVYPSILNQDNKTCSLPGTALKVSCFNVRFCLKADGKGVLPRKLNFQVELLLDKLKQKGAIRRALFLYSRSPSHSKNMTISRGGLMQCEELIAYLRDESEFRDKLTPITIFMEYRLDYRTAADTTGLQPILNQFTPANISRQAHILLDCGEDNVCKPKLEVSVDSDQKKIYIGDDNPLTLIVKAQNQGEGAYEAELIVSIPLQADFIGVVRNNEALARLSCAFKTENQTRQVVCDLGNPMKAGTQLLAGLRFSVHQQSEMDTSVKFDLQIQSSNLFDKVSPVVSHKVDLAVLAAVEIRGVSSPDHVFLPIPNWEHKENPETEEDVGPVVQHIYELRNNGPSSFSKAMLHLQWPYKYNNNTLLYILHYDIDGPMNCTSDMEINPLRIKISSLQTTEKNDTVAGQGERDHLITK
T1 sequence (P06756 891-1048 limits assumed): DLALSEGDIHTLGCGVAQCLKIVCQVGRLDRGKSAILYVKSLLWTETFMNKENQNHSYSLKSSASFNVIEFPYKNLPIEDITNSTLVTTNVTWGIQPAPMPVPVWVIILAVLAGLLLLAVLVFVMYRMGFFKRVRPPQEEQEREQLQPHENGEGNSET
T1 sequence (P05106 27-788): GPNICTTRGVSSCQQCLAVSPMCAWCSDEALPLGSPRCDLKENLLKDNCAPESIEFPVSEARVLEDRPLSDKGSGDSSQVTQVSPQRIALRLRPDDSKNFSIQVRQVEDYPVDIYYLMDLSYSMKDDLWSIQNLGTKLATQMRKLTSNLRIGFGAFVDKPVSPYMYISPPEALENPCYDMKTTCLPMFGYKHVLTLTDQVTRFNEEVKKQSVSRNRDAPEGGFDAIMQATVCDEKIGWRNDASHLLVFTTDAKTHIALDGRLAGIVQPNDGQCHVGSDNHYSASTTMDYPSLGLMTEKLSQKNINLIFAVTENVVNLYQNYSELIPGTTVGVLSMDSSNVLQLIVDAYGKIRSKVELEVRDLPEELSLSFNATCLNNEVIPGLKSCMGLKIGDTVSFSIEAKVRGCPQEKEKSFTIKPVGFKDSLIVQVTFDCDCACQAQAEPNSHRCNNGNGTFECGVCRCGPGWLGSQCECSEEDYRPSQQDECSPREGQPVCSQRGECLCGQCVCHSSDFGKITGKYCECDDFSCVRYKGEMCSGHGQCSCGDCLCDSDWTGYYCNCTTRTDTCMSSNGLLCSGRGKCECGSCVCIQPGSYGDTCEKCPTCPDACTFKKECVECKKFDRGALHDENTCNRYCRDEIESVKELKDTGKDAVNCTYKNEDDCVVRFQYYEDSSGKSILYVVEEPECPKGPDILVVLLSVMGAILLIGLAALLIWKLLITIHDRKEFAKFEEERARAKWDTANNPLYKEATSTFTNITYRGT

SNTETAFTSVLPAGEKPEEGEPVLHVEAEPGFTARDKEKEVTTRPRETV [synstatin82-130]
IC50 (B82L fibroblasts): ~100 nM

B1: S1ED: recombinant mouse Sdc1 ectodomain (amino acids 18-251), expressed in bacteria as GST fusion or 6×His-tagged protein (protein)
chain: QPALPQIVAVNVPPEDQDGSGDDSDNFSGSGTGALPDTLSRQTPSTWKDVWLLTATPTAPEPTSSNTETAFTSVLPAGEKPEEGEPVLHVEAEPGFTARDKEKEVTTRPRETVQLPITQRASTVRVTTAQAAVTSHPHGGMQPGLHETSAPTAPGQPDHQPPRVEGGGTSVIKEVVEDGTANQLPAGEGSGEQDFTFETSGENTAVAAVEPGLRNQPPVDEGATGASQSLLDRK
modifications: left off: a dimerising Fc or GST
notes: recombinant mouse Sdc1 ectodomain (amino acids 18-251), expressed in bacteria as GST fusion or 6×His-tagged protein
co-immunoprecipitation of αvβ3 integrin with human or mouse syndecan-1 [1]: competed
